Reference: paper PMC11584650, “An inhibitory segment within G-patch activators tunes Prp43-ATPase activity during ribosome assembly” (Nature Communications, 2024)

How the values were obtained:
Prp43:Tma23^M = biological target: T1, Prp43:Tma23^M (Saccharomyces cerevisiae, UniProt P53131); experiment: pyruvate kinase/lactate dehydrogenase coupled NADH assay, Michaelis-Menten fit; assay type: biochemical; details: no RNA; 20 mM MgCl2, 50 mM Hepes pH 7.5, 200 mM KCl, room temperature, ATP up to 2.5 mM
T1 construct: 1:1 complex of Prp43 with the middle (I-patch containing) domain of Tma23, co-expressed in E. coli; with Protein TMA23
Source text: pyruvate kinase/lactate dehydrogenase coupled NADH assay, Michaelis-Menten fit on Prp43:Tma23^M | We obtained kinetic parameters for the ATPase activities of Prp43, Prp43:Tma23^M and Ppr43:Pxr1^M complexes

Prp43:Pxr1^GM = biological target: T2, Prp43:Pxr1^GM (Saccharomyces cerevisiae, UniProt P53131); experiment: pyruvate kinase/lactate dehydrogenase coupled NADH assay, initial rate; assay type: biochemical; details: 2.5 mM ATP, no RNA; 20 mM MgCl2, 50 mM Hepes pH 7.5, 200 mM KCl, room temperature
T2 construct: full-length Prp43 with G-patch plus middle domain of Pxr1 (137 residues), co-expressed in E. coli; resolved Prp43 52-718 and Pxr1 122-136; with Protein PXR1
T2 sequence (P53131 whole entry, the tested form may be a part): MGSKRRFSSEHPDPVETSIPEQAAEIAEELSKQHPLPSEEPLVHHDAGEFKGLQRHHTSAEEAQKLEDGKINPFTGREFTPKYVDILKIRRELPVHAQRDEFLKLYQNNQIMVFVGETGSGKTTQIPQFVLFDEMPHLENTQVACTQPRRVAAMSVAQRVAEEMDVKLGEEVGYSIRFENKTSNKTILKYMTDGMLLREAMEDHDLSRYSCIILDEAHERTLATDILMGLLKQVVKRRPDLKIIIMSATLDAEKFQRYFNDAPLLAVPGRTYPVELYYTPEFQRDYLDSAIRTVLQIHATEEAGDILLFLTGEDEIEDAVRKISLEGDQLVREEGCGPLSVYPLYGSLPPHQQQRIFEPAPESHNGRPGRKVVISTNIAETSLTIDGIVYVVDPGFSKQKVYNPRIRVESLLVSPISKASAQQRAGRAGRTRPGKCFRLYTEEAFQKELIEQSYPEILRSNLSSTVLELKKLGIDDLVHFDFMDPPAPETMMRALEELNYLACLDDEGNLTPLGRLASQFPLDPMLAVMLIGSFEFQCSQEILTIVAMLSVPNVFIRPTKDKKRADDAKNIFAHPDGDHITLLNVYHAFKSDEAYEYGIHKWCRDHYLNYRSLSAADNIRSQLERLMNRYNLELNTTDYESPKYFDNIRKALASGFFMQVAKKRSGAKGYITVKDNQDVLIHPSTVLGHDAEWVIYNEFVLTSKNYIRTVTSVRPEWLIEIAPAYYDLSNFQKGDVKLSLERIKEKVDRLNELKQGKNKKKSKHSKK
T2 sequence (P53335 1-137 partner): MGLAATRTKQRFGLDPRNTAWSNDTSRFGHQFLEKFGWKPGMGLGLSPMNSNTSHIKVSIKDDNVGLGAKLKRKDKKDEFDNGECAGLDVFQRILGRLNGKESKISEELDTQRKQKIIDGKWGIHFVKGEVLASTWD

T1 sequence (P53131 whole entry): as the sequence (P53131 whole entry, the tested form may be a part) above
T1 sequence (Q03525 whole entry partner): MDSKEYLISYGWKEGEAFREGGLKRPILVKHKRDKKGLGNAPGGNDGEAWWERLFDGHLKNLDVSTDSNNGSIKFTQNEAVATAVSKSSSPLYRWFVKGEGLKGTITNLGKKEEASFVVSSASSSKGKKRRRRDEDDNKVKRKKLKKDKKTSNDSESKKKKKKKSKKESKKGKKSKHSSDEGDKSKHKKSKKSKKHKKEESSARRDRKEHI

`Nc1ncnc2c1ncn2[C@@H]1O[C@H](COP(=O)(O)OP(=O)(O)OP(=O)(O)O)[C@@H](O)[C@H]1O` [ATP] was tested, and the Km (Prp43:Tma23^M) was 34 ± 4.56 µM and the “pyruvate kinase/lactate dehydrogenase coupled NADH assay, initial rate” value (Prp43:Pxr1^GM) was “Pxr1^GM, Pxr1^GM-L33E, and Pxr1^M were co-expressed with Prp43”.
